Read-outs that look alike come from different tables or passages of the source.
Tests used:
[1] = system: P. falciparum Dd2 (PfLuc) line expressing firefly luciferase, asexual blood stage; experiment: microbe, parasite or virus in culture; assay type: cell-based, Plasmodium falciparum; conditions: for IC50 / Emax: Plasmodium falciparum
P. falciparum Dd2 = experiment: SYBR green I asexual blood stage proliferation assay (96 h); assay type: cell-based, Plasmodium falciparum; conditions: for IC50 / Emax: Plasmodium falciparum
[2] = DD2, read-out: P. falciparum Luciferase ABS 11-pt Reconfirmation Dose Response (48hr): IC50, 11-pt dose response, 48hr
[3] = DD2, 8-pt dose response, 96hr, read-out: P. falciparum Luciferase ABS 8-pt Reconfirmation Dose Response (96hr): IC50
[4] = DD2, 11-pt dose response, 48hr, read-out: P. falciparum Luciferase ABS 11-pt Reconfirmation Dose Response (48hr): Maximum inhibition (%)
[5] = DD2, 11-pt dose response, 96hr, read-out: P. falciparum Luciferase ABS 11-pt Reconfirmation Dose Response (96hr): IC50
[6] = DD2, 11-pt dose response, 96hr, read-out: P. falciparum Luciferase ABS 11-pt Reconfirmation Dose Response (96hr): Maximum inhibition (%)
[7] = DD2, 11-pt dose response, 96hr, read-out: P. falciparum Sybr Green I ABS 11-pt Reconfirmation Dose Response (96hr): IC50
[8] = DD2, 11-pt dose response, 96hr, read-out: P. falciparum Sybr Green I ABS 11-pt Reconfirmation Dose Response (96hr): Maximum inhibition (%)
[9] = DD2, read-out: CDD P. falciparum Luciferase ABS 11-pt Reconfirmation Dose Response (48hr): IC50 (μM), 11-pt dose response, 48hr
[10] = DD2, 8-pt dose response, 96hr, read-out: CDD P. falciparum Luciferase ABS 8-pt Reconfirmation Dose Response (96hr): IC50
[11] = DD2, 8-pt dose response, 96hr, read-out: CDD P. falciparum Luciferase ABS 8-pt Reconfirmation Dose Response (96hr): Maximum inhibition (%)
[12] = DD2, 11-pt dose response, 48hr, read-out: CDD P. falciparum Luciferase ABS 11-pt Reconfirmation Dose Response (48hr): Maximum inhibition (%)
[13] = DD2, 11-pt dose response, 96hr, read-out: CDD P. falciparum Luciferase ABS 11-pt Reconfirmation Dose Response (96hr): IC50
[14] = DD2, 11-pt dose response, 96hr, read-out: CDD P. falciparum Luciferase ABS 11-pt Reconfirmation Dose Response (96hr): Maximum inhibition (%)
[15] = DD2, Sybr Green I, 11-pt dose response, 96hr, read-out: CDD P. falciparum Sybr Green I ABS 11-pt Reconfirmation Dose Response (96hr): IC50
[16] = DD2, Sybr Green I, 11-pt dose response, 96hr, read-out: CDD P. falciparum Sybr Green I ABS 11-pt Reconfirmation Dose Response (96hr): Maximum inhibition (%)
[17] = DD2, 8-pt dose response, 96hr, read-out: P. falciparum Luciferase ABS 8-pt Reconfirmation Dose Response (96hr): Maximum inhibition (%)

SMILES | IC50 [1, 9] | IC50 [1, 10] | Emax [1, 11] | Emax [1, 12] | IC50 [1, 13] | Emax [1, 14] | IC50 (P. falciparum Dd2; [15]) | Emax (P. falciparum Dd2; [16]) | further results
c1cncc(N2CCCC3(CCN(CCN4CCCC4)CC3)C2)c1 [DDD01032557] |  |  |  |  |  |  |  |  | IC50 [1, 2]: 7.21 µM; IC50 [1, 3]: 1.19 µM; Emax [1, 4]: 83.2%; IC50 [1, 5]: 1.41 µM; Emax [1, 6]: 99.7%; IC50 (P. falciparum Dd2; [7]): 2440 nM; Emax (P. falciparum Dd2; [8]): 93.7%
CN(C)[C@@H]1CCN(c2ncc(F)cn2)[C@H]1Cc1ccccc1 [DDD01033375] | 5.55 µM | 1.11 µM | 86.7% | 53.2% | 2.25 µM | 86.9% | > 4160 nM | 74.6% | 
CCN1CCC2(CC1)CC(NCc1cccs1)c1ccccc1O2 (centres unmarked) [DDD01034117] | 2.44 µM | 0.39 µM | 91.4% | 72.4% | 0.515 µM | 91.9% | 3400 nM | 78.6% | 
CCN1CCC2(CC1)CC(NCc1cccc(C)n1)c1ccccc1O2 (centres unmarked) [DDD01034133] | 11.7 µM | 0.72 µM |  | 67.5% | 3.23 µM | 88.1% | 10300 nM | 79.5% | 
CCN1CCC2(CC1)CC(NCc1ccncc1)c1ccccc1O2 (centres unmarked) [DDD01034171] | > 12.5 µM | 0.75 µM | 87.7% | 61.8% | 3.05 µM | 86% | > 4160 nM | 74% | 
COc1ccc(N2CCCC3(C2)CN(c2nncs2)CCO3)cc1 (centres unmarked) [DDD01034473] | 0.758 µM | 0.2 µM | 95% |  | 0.451 µM | 97.9% | 830 nM | 95.3% | 
CCOc1ccc(Br)cc1C1CCCCN1 (centres unmarked) [DDD01034784] | > 12.5 µM | 0.81 µM | 86.8% | 60% | > 1.39 µM | 90.9% | 2780 nM | 65.2% | 
CCOc1ccc(Br)cc1C1CCCN1 (centres unmarked) [DDD01034787] | 4.88 µM | 0.85 µM | 85.8% | 59.1% | 1.38 µM | 86.3% | 7590 nM | 78.7% | 
Cc1c(C)n(CC(O)CN2CCN(CCO)CC2)c2c(Cl)cccc12 (centres unmarked) [DDD01034970] |  |  |  |  |  |  |  |  | IC50 [1, 2]: 3.79 µM; IC50 [1, 3]: 1.15 µM; Emax [1, 17]: 85.4%; Emax [1, 4]: 86.8%; IC50 [1, 5]: 2.24 µM; Emax [1, 6]: 95.9%; IC50 (P. falciparum Dd2; [7]): > 4160 nM; Emax (P. falciparum Dd2; [8]): 73.1%
CC(N)Cc1ccccc1Sc1ccccc1 (centres unmarked) [DDD01035540] |  |  |  |  |  |  |  |  | IC50 [1, 2]: 3.57 µM; IC50 [1, 3]: 1.63 µM; Emax [1, 17]: 92%; Emax [1, 4]: 89.6%; IC50 [1, 5]: 0.558 µM; Emax [1, 6]: 98.2%; IC50 (P. falciparum Dd2; [7]): 4170 nM; Emax (P. falciparum Dd2; [8]): 86.1%
c1ccc(Sc2ccc3c(c2)OCO3)c(CNC2=NCCN2)c1 [DDD01035544] | 7.86 µM | 1.05 µM | 85.5% | 75% | 1.67 µM | 95.1% | > 4160 nM | 65.9% | 
CN(C)[C@@H]1CCN(c2ncccn2)[C@H]1Cc1ccccc1 [DDD01036700] | > 12.5 µM | 0.85 µM | 85.6% | 47.6% | 2.4 µM | 80.9% | > 4160 nM | 74.7% | 
CC(O)c1cccc(Nc2nc(NCCO)c3ccccc3n2)c1 (centres unmarked) [DDD01037968] | 2.9 µM | 0.29 µM | 92.4% | 96.3% | 0.739 µM | 99.6% | 3130 nM | 95.8% | activity in ABS screens [1]: active in ABS screens
CCN(CC)CCNS(=O)(=O)c1cccc(CSC)c1 [DDD01038216] | 10.2 µM | 0.58 µM | 87.3% | 58.8% | 2.99 µM | 89.5% | 7550 nM | 73.7% | 
Oc1ccc(Cl)cc1CNCc1ccccc1Cl [DDD01038243] | > 12.5 µM | 1.02 µM | 90.3% | 59.4% | 4.2 µM | 88.4% | > 12500 nM | 34.6% | 
Oc1ccc(Cl)cc1CNCc1cccc(C(F)(F)F)c1 [DDD01038245] | > 4.16 µM | 0.82 µM | 91.9% | 64% | 10.6 µM | 79.2% | 3030 nM | 95.3% | 
Cc1ccccc1CNCc1cc(Cl)ccc1O [DDD01038246] | 11 µM | 0.64 µM | 92.4% | 69.3% | 5.6 µM | 89.5% | 2600 nM | 97.5% | 
COc1cccc(CNCc2ccccc2Cl)c1O [DDD01038247] | 7.91 µM | 0.9 µM | 89.5% | 79.1% | 1.97 µM | 96.2% | 5220 nM | 87.5% | 
COc1cccc(CNCc2cccc(Cl)c2)c1O [DDD01038248] | 4.63 µM | 0.99 µM | 92.4% | 87.8% | 1.9 µM | 98% | 2690 nM | 92.1% | 
COc1cccc(CNCc2ccc(F)cc2Cl)c1O [DDD01038249] | > 4.16 µM | 0.94 µM | 87.2% | 36% | 2.78 µM | 95.4% | > 4160 nM | 92.8% | 
COc1cccc(CNCc2ccc(F)c(Cl)c2)c1O [DDD01038250] | 3.18 µM | 0.56 µM | 93.8% | 93.8% | 1.4 µM | 99.2% | 1970 nM | 98.2% | 
Cc1cccc(NC(=O)c2cccc(OCc3nnnn3C)c2)n1 [DDD01038630] | 0.916 µM | 0.34 µM | 94.9% | 99.2% | > 0.462 µM | 99.5% | 2540 nM | 99.2% | 
CN[C@@H]1CCC[C@@H](Oc2ccccc2Oc2ccc(C)cc2)[C@@H]1O [DDD01056673] | 1.83 µM | 0.52 µM | 96% | 97% | 0.625 µM | 99.7% | 2330 nM | 99.2% | 
c1cnc(N2CCC(c3csc(Nc4cnccn4)n3)CC2)nc1 [DDD01056714, C1CN(CCC1c1csc(Nc2cnccn2)n1)c1ncccn1] |  |  |  |  |  |  |  |  | IC50 ([1]; DD2, read-out: CDD P. falciparum Luc 11pt dose response (96hr, n=2): IC50 (μM), 96hr, 11-point, n=2): 0.0286 µM; IC50 ([1]; DD2, read-out: CDD P. falciparum Luciferase 11pt dose response (48hr, n=2): IC50 (μM), 48hr, 11-point, n=2): 0.0592 µM; Emax ([1]; DD2, 48hr, 11-point, read-out: CDD P. falciparum Luciferase ABS 11-pt Reconfirmation Dose Response (48hr): Maximum inhibition (%)): 82.6%; Emax ([1]; DD2, 96hr, 11-point, read-out: CDD P. falciparum Luciferase ABS 11-pt Reconfirmation Dose Response (96hr): Maximum inhibition (%)): 94.8%; CDD P. falciparum Sybr Green I ABS Dd2 Dose Response: Maximum measured (%) (P. falciparum Dd2; Dd2, 96 h): 55.9%; IC50 (P. falciparum Dd2; DD2, 96 h, read-out: CDD P. falciparum Sybr Green I ABS Dd2 Dose Response: IC50): > 4160 nM
CCC(C)(C)n1nnnc1C(c1cccs1)N1CCc2ccccc2C1 (centres unmarked) [DDD01056726] | 3.18 µM | 0.56 µM | 91.1% | 71.7% | 0.803 µM | 93.7% | 4960 nM | 79.3% | 
Cc1cccc(C)c1Nc1noc2c1CN(C(=O)c1ccnn1C)CC2 [DDD01056796] | 0.425 µM | 0.14 µM | 96.7% | 98.3% | 0.328 µM | 101% | 266 nM | 96.3% | 
Cc1cccc(C)c1Nc1noc2c1CN(C(=O)c1cn(C)cn1)CC2 [DDD01056797] | 0.494 µM | 0.23 µM | 95.7% | 99.4% | 0.535 µM | 101% | 220 nM | 97.2% | 
Cc1cccc(C)c1Nc1noc2c1CN(C(=O)c1c[nH]nc1C)CC2 [DDD01056871] | 1.9 µM | 0.77 µM |  | 87.7% | 1.38 µM | 96.9% | 2520 nM |  | 

Reference: paper PMC7155171, “Probing the Open Global Health Chemical Diversity Library for Multistage-Active Starting Points for Next-Generation Antimalarials” (ACS Infectious Diseases, 2020)
